Molecules are shown by their SMILES.

Among the data in patent publication US20140343000A1 (priority 2011, published 2014) are EC50 values, retold here.

One experiment deals with recombinant NL4-3 virus (Renilla luciferase in nef, Gag P373S; NLRluc) in MT-2 cells. The experiment can be described thus: whole plant or invertebrate. The class given is cell-based, HIV. The following applies: Renilla, NL43, luciferase activity in cells infected for 4-5 days with NLRluc recombinants, serial dilutions of inhibitor; class symbols (key in Table 1); read-out: EC50. Here is the method:
MT-2 cells and 293T cells were obtained from the NIH AIDS Research and Reference Reagent Program. MT-2 cells were propagated in RPMI 1640 media supplemented with 10% heat inactivated fetal bovine serum, […]. The 293T cells were propagated in DMEM media supplemented with 10% heat inactivated fetal bovine serum (FBS), 100 units/ml penicillin G and 100 μg/ml streptomycin. The proviral DNA clone of NL4-3 was obtained from the NIH AIDS Research and Reference Reagent Program. A recombinant NL4-3 virus, in which a section of the nef gene from NL4-3 was replaced with the Renilla luciferase gene, was used as a reference virus. In addition, residue Gag P373 was converted to P373S. Briefly, the recombinant virus was prepared by transfection of the altered proviral clone of NL4-3. Transfections were performed in 293T cells using LipofectAMINE PLUS from Invitrogen (Carlsbad, Calif.), according to manufacturer's instruction. The virus was titered in MT-2 cells using luciferase enzyme activity as a marker. Luciferase was quantitated using the Dual Luciferase kit from Promega (Madison, Wis.), with modifications to the manufacturer's protocol. The diluted Passive Lysis solution was pre-mixed with the re-suspended Luciferase Assay Reagent and the re-suspended Stop & Glo Substrate (2:1:1 ratio). Fifty (50) μL of the mixture was added to each aspirated well on assay plates and luciferase activity was measured immediately on a Wallac TriLux (Perkin-Elmer). Antiviral activities of inhibitors toward the recombinant virus were quantified by measuring luciferase activity in cells infected for 4-5 days with NLRluc recombinants in the presence serial dilutions of the inhibitor. Table 1 is the key for the data in Table 2.
Take `C=C(C)[C@@H]1CC[C@]2(NC(=O)NCC(C)(C)N3CCOCC3)CC[C@]3(C)[C@H](CC[C@@H]4[C@@]5(C)CC=C(c6ccc(C(=O)O)cc6)C(C)(C)[C@@H]5CC[C@]43C)[C@@H]12` [Example 6, 4-((1R,3aS,5aR,5bR,7aR,11aS,11bR,13aR,13bR)-5a,5b,8,8,11a-pentamethyl-3a-(3-(2-methyl-2-morpholinopropyl)ureido)-1-(prop-1-en-2-yl)-2,3,3a,4,5,5a,5b,6,7,7a,8,11,11a,11b,12,13,13a,13b-octadecahydro-1H-cyclopenta[a]chrysen-9-yl)benzoic acid]: the EC50 is less than 100 nM.

Turning to `C=C(C)[C@@H]1CC[C@]2(NC(=O)NC3(CN(CC)CC)CC3)CC[C@]3(C)[C@H](CC[C@@H]4[C@@]5(C)CC=C(c6ccc(C(=O)O)cc6)C(C)(C)[C@@H]5CC[C@]43C)[C@@H]12` [Example 7, 4-((1R,3aS,5aR,5bR,7aR,11aS,11bR,13aR,13bR)-3a-(3-(1-((diethylamino)methyl)cyclopropyl)ureido)-5a,5b,8,8,11a-pentamethyl-1-(prop-1-en-2-yl)-2,3,3a,4,5,5a,5b,6,7,7a,8,11,11a,11b,12,13,13a,13b-octadecahydro-1H-cyclopenta[a]chrysen-9-yl)benzoic acid], the EC50 was less than 100 nM.

Regarding `C=C(C)[C@@H]1CC[C@]2(NC(=O)NC3(CN4CCCCC4)CC3)CC[C@]3(C)[C@H](CC[C@@H]4[C@@]5(C)CC=C(c6ccc(C(=O)O)cc6)C(C)(C)[C@@H]5CC[C@]43C)[C@@H]12` [Example 8, 4-((1R,3aS,5aR,5bR,7aR,11aS,11bR,13aR,13bR)-5a,5b,8,8,11a-pentamethyl-3a-(3-(1-(piperidin-1-ylmethyl)cyclopropyl)ureido)-1-(prop-1-en-2-yl)-2,3,3a,4,5,5a,5b,6,7,7a,8,11,11a,11b,12,13,13a,13b-octadecahydro-1H-cyclopenta[a]chrysen-9-yl)benzoic acid], the concentration for a half-maximal effect (EC50) is less than 100 nM.

With `C=C(C)[C@@H]1CC[C@]2(NC(=O)NCCCN(C)C)CC[C@]3(C)[C@H](CC[C@@H]4[C@@]5(C)CC=C(c6ccc(C(=O)O)cc6)C(C)(C)[C@@H]5CC[C@]43C)[C@@H]12` [Example 10, 4-((1R,3aS,5aR,5bR,7aR,11aS,11bR,13aR,13bR)-3a-(3-(3-(dimethylamino)propyl)ureido)-5a,5b,8,8,11a-pentamethyl-1-(prop-1-en-2-yl)-2,3,3a,4,5,5a,5b,6,7,7a,8,11,11a,11b,12,13,13a,13b-octadecahydro-1H-cyclopenta[a]chrysen-9-yl)benzoic acid], the EC50 was less than 100 nM.

Turning to `C=C(C)[C@@H]1CC[C@]2(NC(=O)NCCCN3CCOCC3)CC[C@]3(C)[C@H](CC[C@@H]4[C@@]5(C)CC=C(c6ccc(C(=O)O)cc6)C(C)(C)[C@@H]5CC[C@]43C)[C@@H]12` [Example 11, 4-((1R,3aS,5aR,5bR,7aR,11aS,11bR,13aR,13bR)-5a,5b,8,8,11a-pentamethyl-3a-(3-(3-morpholinopropyl)ureido)-1-(prop-1-en-2-yl)-2,3,3a,4,5,5a,5b,6,7,7a,8,11,11a,11b,12,13,13a,13b-octadecahydro-1H-cyclopenta[a]chrysen-9-yl)benzoic acid], the EC50 was less than 100 nM.

As to `C=C(C)[C@@H]1CC[C@]2(NC(=O)NCCCn3ccnc3C)CC[C@]3(C)[C@H](CC[C@@H]4[C@@]5(C)CC=C(c6ccc(C(=O)O)cc6)C(C)(C)[C@@H]5CC[C@]43C)[C@@H]12` [Example 12, 4-((1R,3aS,5aR,5bR,7aR,11aS,11bR,13aR,13bR)-5a,5b,8,8,11a-pentamethyl-3a-(3-(3-(2-methyl-1H-imidazol-1-yl)propyl)ureido)-1-(prop-1-en-2-yl)-2,3,3a,4,5,5a,5b,6,7,7a,8,11,11a,11b,12,13,13a,13b-octadecahydro-1H-cyclopenta[a]chrysen-9-yl)benzoic acid], the EC50 was less than 100 nM.

In the case of `C=C(C)[C@@H]1CC[C@]2(NC(=O)NCCc3c[nH]cn3)CC[C@]3(C)[C@H](CC[C@@H]4[C@@]5(C)CC=C(c6ccc(C(=O)O)cc6)C(C)(C)[C@@H]5CC[C@]43C)[C@@H]12` [Example 13, 4-((1R,3aS,5aR,5bR,7aR,11aS,11bR,13aR,13bR)-3a-(3-(2-(1H-imidazol-4-yl)ethyl)ureido)-5a,5b,8,8,11a-pentamethyl-1-(prop-1-en-2-yl)-2,3,3a,4,5,5a,5b,6,7,7a,8,11,11a,11b,12,13,13a,13b-octadecahydro-1H-cyclopenta[a]chrysen-9-yl)benzoic acid], the EC50 is less than 100 nM.

Regarding `C=C(C)[C@@H]1CC[C@]2(NC(=O)NCCCn3ccnc3)CC[C@]3(C)[C@H](CC[C@@H]4[C@@]5(C)CC=C(c6ccc(C(=O)O)cc6)C(C)(C)[C@@H]5CC[C@]43C)[C@@H]12` [Example 14, 4-((1R,3aS,5aR,5bR,7aR,11aS,11bR,13aR,13bR)-3a-(3-(3-(1H-imidazol-1-yl)propyl)ureido)-5a,5b,8,8,11a-pentamethyl-1-(prop-1-en-2-yl)-2,3,3a,4,5,5a,5b,6,7,7a,8,11,11a,11b,12,13,13a,13b-octadecahydro-1H-cyclopenta[a]chrysen-9-yl)benzoic acid], the 50% effective concentration (EC50) is less than 100 nM.

For `C=C(C)[C@@H]1CC[C@]2(NC(=O)N3CCCCC3)CC[C@]3(C)[C@H](CC[C@@H]4[C@@]5(C)CC=C(c6ccc(C(=O)O)cc6)C(C)(C)[C@@H]5CC[C@]43C)[C@@H]12` [Example 15, 4-((1R,3aS,5aR,5bR,7aR,11aS,11bR,13aR,13bR)-5a,5b,8,8,11a-pentamethyl-3a-(piperidine-1-carboxamido)-1-(prop-1-en-2-yl)-2,3,3a,4,5,5a,5b,6,7,7a,8,11,11a,11b,12,13,13a,13b-octadecahydro-1H-cyclopenta[a]chrysen-9-yl)benzoic acid], the EC50 was less than 100 nM.

On to `C=C(C)[C@@H]1CC[C@]2(NC(=O)NCC(=O)O)CC[C@]3(C)[C@H](CC[C@@H]4[C@@]5(C)CC=C(c6ccc(C(=O)O)cc6)C(C)(C)[C@@H]5CC[C@]43C)[C@@H]12` [Example 16, 4-((1R,3aS,5aR,5bR,7aR,11aS,11bR,13aR,13bR)-3a-(3-(carboxymethyl)ureido)-5a,5b,8,8,11a-pentamethyl-1-(prop-1-en-2-yl)-2,3,3a,4,5,5a,5b,6,7,7a,8,11,11a,11b,12,13,13a,13b-octadecahydro-1H-cyclopenta[a]chrysen-9-yl)benzoic acid], for which the EC50 is less than 100 nM.

The experiment is the same for the next values; noted with them: Renilla, NL43, luciferase activity in cells infected for 4-5 days with NLRluc recombinants, serial dilutions of inhibitor; numeric values; read-out: EC50.
For the compound `C=C(C)[C@@H]1CC[C@]2(NC(=O)N3CCN([C@@H]4COC[C@H]4N(C)C)CC3)CC[C@]3(C)[C@H](CC[C@@H]4[C@@]5(C)CC=C(c6ccc(C(=O)O)cc6)C(C)(C)[C@@H]5CC[C@]43C)[C@@H]12` [Example 9, 4-((1R,3aS,5aR,5bR,7aR,11aS,11bR,13aR,13bR)-3a-(4-((3S,4S)-4-(dimethylamino)tetrahydrofuran-3-yl)piperazine-1-carboxamido)-5a,5b,8,8,11a-pentamethyl-1-(prop-1-en-2-yl)-2,3,3a,4,5,5a,5b,6,7,7a,8,11,11a,11b,12,13,13a,13b-octadecahydro-1H-cyclopenta[a]chrysen-9-yl)benzoic acid], the EC50 was 3 nM.
